Positions count from the first letter of the chain named.

What all share (assay): HDAC8 mutant biochemical assay
The target of assay [1] is T1, HDAC8 Cys102Ser/Cys153Ser/Cys287Ser (Homo sapiens, UniProt Q9BY41, C102S/C153S/C287S).
T1 construct: made in house
T1 sequence (Q9BY41 1-377 C102S/C153S/C287S): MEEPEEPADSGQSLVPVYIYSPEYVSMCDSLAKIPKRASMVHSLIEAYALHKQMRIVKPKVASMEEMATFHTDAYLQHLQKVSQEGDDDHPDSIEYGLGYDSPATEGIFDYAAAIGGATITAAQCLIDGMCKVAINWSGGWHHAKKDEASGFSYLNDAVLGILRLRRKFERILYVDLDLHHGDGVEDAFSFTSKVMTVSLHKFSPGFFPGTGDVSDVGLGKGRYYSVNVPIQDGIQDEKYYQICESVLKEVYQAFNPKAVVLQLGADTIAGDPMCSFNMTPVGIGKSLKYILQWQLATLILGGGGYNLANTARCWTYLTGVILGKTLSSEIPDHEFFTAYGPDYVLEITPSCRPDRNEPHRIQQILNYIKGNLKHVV
Particulars: read-out: IC50 [μM] @ 100 nM HDAC8: G Cys102Ser/Cys153Ser/Cys287Ser, 1 h preincubation. On the procedure:
(§1) HDAC8 mutant variants were generated, produced, and further purified as described previously.[32] Cysteines 28 and 314 were exchanged with serine using the following primer pairs: HD8_C28S_for, […]; HD8_C28S_rev, […]; HD8_C314S_for, […]; HD8_C314S_rev, […].
(§2) The enzyme activity assay was performed in assay buffer [25 mM Tris-HCl (pH 8.0), 50 mM NaCl, and 0.001% (v/v) Pluronic F-68] in black half-area 96-well microplates (Greiner Bio-One). For the initial screening, 10 nM HDAC8 was preincubated with the indicated compounds at 250 μM for 2 h at 30 °C. […] The reaction was initiated by the addition of 20 μM Boc-Lys(TFA)-AMC (Bachem). After substrate conversion at 30 °C for 15 min for HDAC8 and 1 h for HDAC8 mutants and HDAC4, the reaction was stopped by adding 1.67 μM suberoylanilide trifluoromethylketone (SATFMK). The deacetylated substrate was cleaved with 0.42 mg/mL trypsin to release fluorescent 7-amino-4-methylcoumarin (AMC), which was detected with a microplate reader (PHERAstar FS […]) with fluorescence excitation at 360 nm and emission at 460 nm. IC50 values were calculated by generating dose–response curves in GraphPad Prism 6 and fitting those to a four-parameter logistic model.

The target of assay [2] is T2, HDAC8 Cys102Ser/Cys153Ser/Cys244Ser (Homo sapiens, UniProt Q9BY41, C102S/C153S/C244S).
T2 construct: made in house
T2 sequence (Q9BY41 1-377 C102S/C153S/C244S): T1 sequence (Q9BY41 1-377 C102S/C153S/C287S) with C244S, S287C
The settings on record: read-out: IC50 [μM] @ 100 nM HDAC8: E Cys102Ser/Cys153Ser/Cys244Ser, 1 h preincubation. As for the experimental part:
as §1, §2

In assay [3] the target is T3, HDAC8 Cys102Ser/Cys153Ser/Cys314Ser (Homo sapiens, UniProt Q9BY41, C102S/C153S/C314S).
T3 construct: made in house
T3 sequence (Q9BY41 1-377 C102S/C153S/C314S): T1 sequence (Q9BY41 1-377 C102S/C153S/C287S) with S287C, C314S
The settings on record: read-out: IC50 [μM] @ 100 nM HDAC8: H Cys102Ser/Cys153Ser/Cys314Ser, 1 h preincubation. On the procedure:
as §1, §2

Assay [4] addresses T4, HDAC8 Cys102Ser/Cys153Ser/Cys28Ser (Homo sapiens, UniProt Q9BY41, C102S/C153S/C28S).
T4 construct: made in house
T4 sequence (Q9BY41 1-377 C28S/C102S/C153S): T1 sequence (Q9BY41 1-377 C102S/C153S/C287S) with C28S, S287C
The settings on record: read-out: IC50 [μM] @ 100 nM HDAC8: B Cys102Ser/Cys153Ser/Cys28Ser, 1 h preincubation. On the procedure: as §1, §2

On to `C#Cc1cc[n+](C)cc1` [C6+], for which the IC50 in assay [1] stood at 34 ± 2 µM; in assay [2], 24 ± 3 µM; in assay [3], 100 ± 14 µM; in assay [4] it was 67 ± 6 µM.
For `C#Cc1nccc[n+]1C` [D6+], the IC50 in assay [1], in assay [2] and in assay [4] was greater than 130 µM throughout.
Turning to `C[n+]1ccc(I)cc1` [C3+], the IC50 in assay [1] is greater than 130 µM; in assay [2] it was greater than 130 µM; in assay [3], 14 µM; in assay [4] it was greater than 130 µM.
Take `C[n+]1cccnc1I` [D3+]: the IC50 came out at 51 ± 7 µM in assay [1], 40 ± 6 µM in assay [2], 20 ± 1 µM in assay [3] and 62 ± 3 µM in assay [4].
Take `C[n+]1cncc(I)c1` [F3+]: the IC50 in assay [1] is greater than 130 µM; in assay [2] it was 26 ± 4 µM; in assay [3], 19 ± 2 µM; in assay [4] it was greater than 130 µM.
As for `C[n+]1cccnc1Cl` [D1+], the IC50 in assay [1], in assay [2], in assay [3] and in assay [4] was greater than 130 µM throughout.
`C[n+]1cccnc1Br` [D2+]: the IC50 in assay [1], in assay [2], in assay [3] and in assay [4] was greater than 130 µM throughout.
Regarding `C[n+]1cncc(Br)c1` [F2+], the IC50 in assay [1] is 95 ± 8 µM; in assay [2], 87 ± 7 µM; in assay [3] it was 74 ± 11 µM; in assay [4] it was greater than 130 µM.
Taken in the same sequence, the figures for `C[n+]1ccccc1I` [A3+] were greater than 130 µM, greater than 130 µM, 92 ± 10 µM and greater than 130 µM.
In the case of `C#Cc1c[n+](C)ccn1` [G6+], the IC50 in assay [1] is 73 ± 6 µM; in assay [2], 100 ± 12 µM; in assay [3] it was greater than 130 µM; in assay [4], 106 ± 10 µM.

Values taken from publication PMC10788917 (Journal of Medicinal Chemistry, 2023).
